Experimental data as given in US10829501B2 (BRISTOL-MYERS SQUIBB COMPANY, priority 2016, dated 2020).
Where a name gives a salt, the structure may show the parent alone.

These compounds were tested against ROCK2 (Homo sapiens, UniProt O75116) (assay: ROCK2 kinase inhibition assay (LABCHIP 3000 Reader, FITC peptide substrate)). Conditions: not given.
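Note: rho kinase reaction read by separating phosphorylated from unphosphorylated peptide on chip, with inhibition of kinase activity computed per concentration across a dose-response series.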

Chain of ROCK2 (O75116 whole entry, species assumed): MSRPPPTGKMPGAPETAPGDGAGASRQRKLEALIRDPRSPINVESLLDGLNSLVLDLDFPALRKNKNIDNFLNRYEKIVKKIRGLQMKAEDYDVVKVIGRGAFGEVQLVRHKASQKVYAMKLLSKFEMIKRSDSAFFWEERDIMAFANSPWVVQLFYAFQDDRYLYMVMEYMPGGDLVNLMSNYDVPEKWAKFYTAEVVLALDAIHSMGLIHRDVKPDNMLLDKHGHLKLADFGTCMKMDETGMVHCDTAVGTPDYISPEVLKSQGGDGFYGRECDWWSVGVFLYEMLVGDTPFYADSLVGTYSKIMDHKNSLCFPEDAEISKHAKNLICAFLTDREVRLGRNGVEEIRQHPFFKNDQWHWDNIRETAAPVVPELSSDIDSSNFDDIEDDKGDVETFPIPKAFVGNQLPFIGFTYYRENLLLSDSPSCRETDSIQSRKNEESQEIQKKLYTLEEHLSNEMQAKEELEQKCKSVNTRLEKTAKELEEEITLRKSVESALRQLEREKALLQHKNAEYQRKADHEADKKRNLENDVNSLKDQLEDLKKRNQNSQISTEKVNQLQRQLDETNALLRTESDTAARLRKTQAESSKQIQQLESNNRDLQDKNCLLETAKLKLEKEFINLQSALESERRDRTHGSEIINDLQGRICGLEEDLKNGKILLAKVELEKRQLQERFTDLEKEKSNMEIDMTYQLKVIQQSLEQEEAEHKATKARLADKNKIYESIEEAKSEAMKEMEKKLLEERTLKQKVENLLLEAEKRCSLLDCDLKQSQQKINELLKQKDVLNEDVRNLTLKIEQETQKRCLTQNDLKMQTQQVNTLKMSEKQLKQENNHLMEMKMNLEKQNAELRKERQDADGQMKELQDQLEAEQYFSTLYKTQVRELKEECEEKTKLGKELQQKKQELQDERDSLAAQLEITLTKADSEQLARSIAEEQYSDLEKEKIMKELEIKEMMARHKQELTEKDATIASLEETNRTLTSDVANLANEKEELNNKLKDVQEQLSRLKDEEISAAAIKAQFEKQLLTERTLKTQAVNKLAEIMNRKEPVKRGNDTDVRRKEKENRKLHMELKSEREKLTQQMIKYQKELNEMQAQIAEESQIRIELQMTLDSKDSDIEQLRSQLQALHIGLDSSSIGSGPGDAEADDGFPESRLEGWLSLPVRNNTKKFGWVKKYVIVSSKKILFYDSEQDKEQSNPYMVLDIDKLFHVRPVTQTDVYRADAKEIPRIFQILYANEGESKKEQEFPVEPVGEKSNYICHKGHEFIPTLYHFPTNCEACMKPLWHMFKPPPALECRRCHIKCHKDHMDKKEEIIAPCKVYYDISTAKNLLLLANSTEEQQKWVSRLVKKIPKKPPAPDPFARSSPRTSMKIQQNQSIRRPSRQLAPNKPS

Compound | IC50 [nM]
[H][C@]1(Oc2ncccc2C(N)=O)C[C@@]2(C[C@H](NC(=O)c3nn(C(F)F)c4cc(N5CCOCC5)ccc34)C2)C1 (stereo partly drawn) [Example 372, N-((aR)-6-((3-carbamoylpyridin-2-yl)oxy)spiro[3.3]heptan-2-yl)-1-(difluoromethyl)-6-morpholino-1H-indazole-3-carboxamide] | < 5
[H][C@]1(Oc2ncccc2C(N)=O)C[C@@]2(C[C@H](NC(=O)c3nnn4c(Cl)c(OCc5ccccc5)ccc34)C2)C1 (stereo partly drawn) [Example 373, 6-(benzyloxy)-N-((aR)-6-((3-carbamoylpyridin-2-yl)oxy)spiro[3.3]heptan-2-yl)-7-chloro-[1,2,3]triazolo[1,5-a]pyridine-3-carboxamide] | 250 to 2500
[H][C@]1(Oc2ncccc2C(N)=O)C[C@@]2(C[C@H](NC(=O)c3nnn4c(C5CC5)c(OCc5ccccc5)ccc34)C2)C1 (stereo partly drawn) [Example 374, 6-(benzyloxy)-N-((aR)-6-((3-carbamoylpyridin-2-yl)oxy)spiro[3.3]heptan-2-yl)-7-cyclopropyl-[1,2,3]triazolo[1,5-a]pyridine-3-carboxamide] | 50 to 250
[H][C@]1(Oc2ncccc2C(N)=O)C[C@@]2(C[C@H](NC(=O)c3nnn4cc(OCC(C)(C)O)ccc34)C2)C1 (stereo partly drawn) [Example 375, N-((aR)-6-((3-carbamoylpyridin-2-yl)oxy)spiro[3.3]heptan-2-yl)-6-(2-hydroxy-2-methylpropoxy)-[1,2,3]triazolo[1,5-a]pyridine-3-carboxamide] | 50 to 250
[H][C@]1(Oc2ncccc2C(N)=O)C[C@@]2(C[C@H](NC(=O)c3cc(C4CC4)n4c(Cl)c(OCc5ccccc5)ccc34)C2)C1 (stereo partly drawn) [Example 376, 6-(benzyloxy)-N-((aR)-6-((3-carbamoylpyridin-2-yl)oxy)spiro[3.3]heptan-2-yl)-5-chloro-3-cyclopropylindolizine-1-carboxamide] | 5 to 50
[H][C@]1(Oc2ncccc2C(N)=O)C[C@@]2(C[C@H](NC(=O)c3cnn(-c4ccc(Br)cc4)c3C)C2)C1 (stereo partly drawn) [Example 377] | 5 to 50
[H][C@]1(Oc2ncccc2C(N)=O)C[C@@]2(C[C@H](NC(=O)c3cnn(-c4ccc(N5CCOCC5)cc4)c3C)C2)C1 (stereo partly drawn) [Example 378] | 50 to 250
[H][C@]1(Oc2ncccc2C(N)=O)C[C@@]2(C[C@H](NC(=O)c3cnn(-c4ccccc4)c3C)C2)C1 (stereo partly drawn) [Example 379] | 50 to 250
NC(=O)c1cccnc1OC1CC2(CC(NC(=O)c3cn(-c4ccccc4)nn3)C2)C1 [Example 389, N-[(aR)2-({6-(1-phenyl-1H-1,2,3-triazole)-4-carboxamido]spiro[3.3]heptan-2-yl}oxy)nicotinamide] | 50 to 250
NC(=O)c1cccnc1OC1CC2(CC(NC(=O)c3c[nH]c(-c4ccccc4)n3)C2)C1 [Example 390, N-[(aR)2-({6-(2-phenyl-1H-imidazole)-4-carboxamido]spiro[3.3]heptan-2-yl}oxy)nicotinamide] | 250 to 2500
Cc1c(C(=O)NC2CC3(C2)CC(Oc2ncccc2C(N)=O)C3)cnn1-c1ccc(C#N)c(F)c1 (stereo not drawn) [Example 391] | 50 to 250
Cc1nc(C(=O)NC2CC3(C2)CC(Oc2ncccc2C(N)=O)C3)c(C)n1-c1ccccc1 (stereo not drawn) [Example 392] | 50 to 250
NC(=O)c1cccnc1OC1CC2(CC(NC(=O)c3cnn(-c4cccc(Cl)c4F)c3)C2)C1 (stereo not drawn) [Example 393] | 5 to 50
NC(=O)c1cccnc1OC1CC2(CC(NC(=O)c3cnn(-c4cccc(Cl)c4)c3)C2)C1 (stereo not drawn) [Example 394] | 5 to 50

Other lines, results leading:

IC50 [nM] | Compound
5 to 50 | COc1cccc(-n2cc(C(=O)NC3CC4(C3)CC(Oc3ncccc3C(N)=O)C4)cn2)c1 (stereo not drawn) [Example 395]
5 to 50 | Cn1nc(C(=O)NC2CC3(C2)CC(Oc2ncccc2C(N)=O)C3)cc1-c1ccccc1 (stereo not drawn) [Example 396]
5 to 50 | NC(=O)c1cccnc1OC1CC2(CC(NC(=O)c3cnn(-c4ccccc4Cl)c3)C2)C1 (stereo not drawn) [Example 397]
5 to 50 | COc1ccccc1-n1cc(C(=O)NC2CC3(C2)CC(Oc2ncccc2C(N)=O)C3)cn1 (stereo not drawn) [Example 398]
50 to 250 | Cc1c(C(=O)NC2CC3(C2)CC(Oc2ncccc2C(N)=O)C3)cnn1-c1cccc(C#N)c1 (stereo not drawn) [Example 399]
< 5 | [H][C@]1(Oc2ncccc2C(N)=O)C[C@@]2(C[C@H](NC(=O)c3nn(C(C)(C)C#N)c4cc(-c5cnn(C)c5)ccc34)C2)C1 (stereo partly drawn) [Example 406, N-((aR)-6-((3-carbamoylpyridin-2-yl)oxy)spiro[3.3]heptan-2-yl)-1-(2-cyanopropan-2-yl)-6-(1-methyl-1H-pyrazol-4-yl)-1H-indazole-3-carboxamide, TFA]
< 5 | [H][C@]1(Oc2ncccc2C(N)=O)C[C@@]2(C[C@H](NC(=O)c3nn(C(C)(C)C#N)c4cc(-c5cnn(C(F)F)c5)ccc34)C2)C1 (stereo partly drawn) [Example 407, N-((aR)-6-((3-carbamoylpyridin-2-yl)oxy)spiro[3.3]heptan-2-yl)-1-(2-cyanopropan-2-yl)-6-(1-(difluoromethyl)-1H-pyrazol-4-yl)-1H-indazole-3-carboxamide, TFA]

Same assay, conditions: read-out: ROCK2 Activity (ROCK2 IC50); 5 μM ATP, 1.5 μM peptide substrate, pH 7.5

Compound | IC50 [nM]
COc1ccc2c(c1)CCc1c(C(=O)NC3CC4(C3)CC(Oc3ncccc3C(N)=O)C4)nn(C)c1-2 [Example 380, N-((aR)-6-((3-carbamoylpyridin-2-yl)oxy)spiro[3.3]heptan-2-yl)-7-methoxy-1-methyl-4,5-dihydro-1H-benzo[g]indazole-3-carboxamide] | 5 to 50
COc1ccc2c(c1)CCc1c-2nn(C)c1C(=O)NC1CC2(C1)CC(Oc1ncccc1C(N)=O)C2 [Example 381, N-((aR)-6-((3-carbamoylpyridin-2-yl)oxy)spiro[3.3]heptan-2-yl)-7-methoxy-2-methyl-4,5-dihydro-2H-benzo[g]indazole-3-carboxamide] | 250 to 2500
Cc1nn(Cc2ccc(F)cc2)cc1C(=O)NC1CC2(C1)CC(Oc1ncccc1C(N)=O)C2 [Example 382, N-[(aR)2-[(6-{1-[(4-fluorophenyl)methyl]-3-methyl-1H-pyrazole-4-amido}spiro[3.3]heptan-2-yl)oxy]pyridine-3-carboxamide 1 trifluoroacetic acid salt] | 5 to 50
Cc1c(C(=O)N[C@H]2CC3(C2)C[C@H](Oc2ncccc2C(N)=O)C3)cnn1Cc1ccc(F)cc1 (stereo partly drawn) [Example 383, N-[(aR)2-[(6-{1-[(4-fluorophenyl)methyl]-5-methyl-1H-pyrazole-4-amido}spiro[3.3]heptan-2-yl)oxy]pyridine-3-carboxamide 1 trifluoroacetic acid salt] | 5 to 50
Cc1c(C(=O)NC2CC3(C2)CC(Oc2ncccc2C(N)=O)C3)cnn1-c1ccc(Cl)cc1 [Example 384, N-[(aR)2-({6-[1-(4-chlorophenyl)-5-methyl-1H-pyrazole-4-amido]spiro[3.3]heptan-2-yl}oxy)pyridine-3-carboxamid 1 trifluoroacetic acid salt] | 5 to 50
Cc1c(C(=O)NC2CC3(C2)CC(Oc2ncccc2C(N)=O)C3)cnn1-c1ccc(C#N)cc1 [Example 385, N-[(aR)2-({6-[1-(4-cyanophenyl)-5-methyl-1H-pyrazole-4-amido]spiro[3.3]heplan-2-yl}oxy)pyridine-3-carboxamide1 trifluoroacetic acid salt] | 5 to 50
Cc1c(C(=O)NC2CC3(C2)CC(Oc2ncccc2C(N)=O)C3)cnn1-c1ccc(OC(F)(F)F)cc1 [Example 386, N-[(aR)2-[(6-{5-methyl-1-[4-(trifluoromethoxy)phenyl]-1H-pyrazole-4-amido}spiro[3.3]heptan-2-yl)oxy]pyridine-3-carboxamide 1 trifluoroacetic acid salt] | 5 to 50
Cc1c(C(=O)NC2CC3(C2)CC(Oc2ncccc2C(N)=O)C3)cnn1-c1ccc(S(C)(=O)=O)cc1 [Example 387, N-[(aR)2-({6-[1-(4-methanesulfonylphenyl)-5-methyl-1H-pyrazole-4-amido]spiro[3.3]heptan-2-yl}oxy)pyridine-3-carboxamide 1 trifluoroacetic acid salt] | 5 to 50
Cc1c(C(=O)N[C@H]2CC3(C2)C[C@H](Oc2ncccc2C(N)=O)C3)cnn1-c1ccc(C#N)cc1F (stereo partly drawn) [Example 388, N-[(aR)2-({6-[1-(4-cyano-2-fluorophenyl)-5-methyl-1H-pyrazole-4-amido]spiro[3.3]heptan-2-yl}oxy)pyridine-3-carboxamide 1 trifluoroacetic acid salt] | 50 to 250
COc1ccc(-n2ncc(C(=O)N[C@H]3CC4(C3)C[C@H](Oc3ncccc3C(N)=O)C4)c2C)cn1 (stereo partly drawn) [Example 400] | 5 to 50
CC(C)(C#N)n1nc(C(=O)NC2CC3(C2)CC(Oc2ncccc2C(N)=O)C3)c2ccc(F)cc21 [Example 401, N-((aR)-6-((3-carbamoylpyridin-2-yl)oxy)spiro[3.3]heptan-2-yl)-1-(2-cyanopropan-2-yl)-6-fluoro-1H-indazole-3-carboxamide, TFA] | < 5
CC(C)(C(N)=O)n1nc(C(=O)NC2CC3(C2)CC(Oc2ncccc2C(N)=O)C3)c2ccc(F)cc21 [Example 402, 1-(1-amino-2-methyl-1-oxopropan-2-yl)-N-((aR)-6-((3-carbamoylpyridin-2-yl)oxy)spiro[3.3]heptan-2-yl)-6-fluoro-1H-indazole-3-carboxamide, TFA] | 5 to 50
CC(C)(C#N)n1nc(C(=O)NC2CC3(C2)CC(Oc2ncccc2C(N)=O)C3)c2ccc(Br)cc21 [Example 403, 6-bromo-N-((aR)-6-((3-carbamoylpyridin-2-yl)oxy)spiro[3.3]heptan-2-yl)-1-(2-cyanopropan-2-yl)-1H-indazole-3-carboxamide, TFA] | 5 to 50
Cn1cc(-c2ccc3c(C(=O)NC4CC5(C4)CC(Oc4ncccc4C(N)=O)C5)nn(CC4(O)CC(F)(F)C4)c3c2)cn1 [Example 404, N-((aR)-6-((3-carbamoylpyridin-2-yl)oxy)spiro[3.3]heptan-2-yl)-1-((3,3-difluoro-1-hydroxycyclobutyl)methyl)-6-(1-methyl-1H-pyrazol-4-yl)-1H-indazole-3-carboxamide, TFA] | 5 to 50
Cn1cc(-c2ccc3c(C(=O)NC4CC5(C4)CC(Oc4ncccc4C(N)=O)C5)nn(CC4(O)CCC4)c3c2)cn1 [Example 405, N-((aR)-6-((3-carbamoylpyridin-2-yl)oxy)spiro[3.3]heptan-2-yl)-1-((1-hydroxycyclobutyl)methyl)-6-(1-methyl-1H-pyrazol-4-yl)-1H-indazole-3-carboxamide, TFA] | < 5
